Key:
A549 = assay: MTT viability assay, A549; assay type: cell-based, human; details: mean ± span, 48 h treatment, cell line with KRAS mutation
Protocol: (§1) NSCLC cell lines were obtained from the Hamon Center for Therapeutic Oncology Research (UT Southwestern Medical Center). IMR-90 human lung fibroblasts were from ATCC (CC-186). All cell lines were maintained and treated in RPMI medium (Cytiva (Shanghai, China), #SH30027), supplemented with 10% heat-inactivated FBS (Millipore Sigma (Darmstadt, Germany), F0394).
(§2) 5000–10,000 cells/0.1 mL/well were seeded in 96-well plates to achieve 70% confluence after 24 h. All drug stock solutions were prepared fresh in DMSO at a concentration of 10 mM. The day after cell plating, we added 0.1 mL of medium containing the appropriate drug dilutions. After 48 h of treatment, 10 μL of MTT solution (5 mg/mL) was added to each well. After 4 h incubation, the medium was aspirated, and the formazan salts dissolved in 200 μL DMSO/well for 10 min at 37 °C. The absorbance was read at 570 nm (OD 570 nm). Data are represented as mean ± SD of two independent experiments.
(§3) Statistical and data analysis was performed using GraphPad Prism (v10). IC50 values were calculated using a three-parameter non-linear regression model with log(inhibitor) vs. response. For the TxrR activity statistics, the groups were compared using a two-way ANOVA followed by Dunnett’s multiple comparisons with alpha = 0.05. The correlation between IC50 values and TxrR activity was achieved using Pearson correlation with alpha = 0.05.

[1] = tested on: TrxR in A549 cell lysates; assay: Thioredoxin reductase activity in lysates of treated A549 cells; assay type: cell-based, human; details: for Mean Diff. TrxR activity vs. veh: A549 lysate, 24 h treatment at 5 μM
Protocol: The enzymatic activity of TrxR in the A549 and H522 cell lysates was measured using the TrxR assay Kit (Abcam ab83463) following the manufacturer’s instructions. This kit is based on the TxrR-mediated reduction of the colorless DTNB into TNB2—(yellow). Briefly, cells were plated to reach 70% confluence on a 100-mm dish in one day. They were treated with 5 μM of the gold compounds or the equivalent quantity of DMSO for 24 h. Then, cells were washed in PBS 1X, detached, and lysed in 100 μL of cold TrxR assay buffer supplemented with the Proteinase Inhibitor Cocktail. 20 μg and 40 μg of total proteins were used for the A549 and the H522, respectively. The DTNB substrate was added to samples with or without TrxR inhibitor (provided with the kit) in 96-well plates. The OD412 was measured soon after the substrate addition (A1) and then after 25, 60, 90, and 110 min (An) at 25 °C using a FLUOstar Omega Microplate Reader (BGM Labtech, Chicago, IL, USA). Data analysis was performed following the manufacturer’s instructions. The OD of TNB2, generated by TrxR in every condition, is:ΔA412 nm = (AnAB − AnINH) − (AB − A1INH) where AB is the assay buffer, and INH is the inhibitor. The TrxR activity is:(2) ΔB/Tn−T1×mg of protein lysate×sample dilution factor=(nmol/min)/mg=mU/mg where ΔB is the TNB amount calculated applying ΔA412 nm to TNB standard curve (in nmol), T1 is the time of the first reading (A1AB, and A1INH) (in min), Tn is the time of the second reading (AnAB and AnINH) (in min). The residual TxrR activity (%) was calculated by normalizing the TxrR activity for each compound with the matching vehicle values at every n time point.
as §3

H1993 = assay: MTT viability assay, H1993; assay type: cell-based, human; details: mean ± span, 48 h treatment, cell line without KRAS mutation
Protocol: as §1, §2, §3

[2] = tested on: human NSCLC cell lines without KRAS mutations; assay: MTT assay, average across NSCLC cell lines without KRAS mutations; assay type: cell-based; details: average across cell lines without KRAS mutations (H522, H661, H1395, H1993), 48 h, read-out: IC50 * averaged values
Protocol: as §1, §2, §3

HCC-44 = assay: MTT viability assay, HCC-44; assay type: cell-based, human; details: mean ± span, 48 h treatment, cell line with KRAS mutation
Protocol: as §1, §2, §3

IMR90 = assay: MTT viability assay, IMR90 non-transformed lung fibroblasts; assay type: cell-based, human; details: for selectivity for the NSCLC cell lines over the lung fibroblasts: IMR90 vs NSCLC cell lines, MTT 48 h; for IC50: mean ± span, 48 h treatment, MTT, non-transformed human lung fibroblasts
Protocol: as §1, §2, §3

[3] = Solution stability by UV-visible spectra over time; assay type: physicochemical; details: UV-visible spectra over time; DMSO, methanol, PBS buffered solutions
Protocol: Stability studies were led by acquiring UV−visible spectra of 100 µM DMSO or methanol solutions of compounds 1∓8 over time (Figures S19–S29 in Supplementary Materials). […] The stability of NHC-AuX3 complexes (with X = Cl, compounds 1 and 2, with X = Br, compounds 5 and 6) was affected by the nature of both the substituents on the imidazolyl ligand and of the halide, showing a small decrease of the UV bands maxima in an hour. By analyzing the spectral data of compounds 1 and 2, a percent concentration reduction of about 4–5% was estimated within an hour, grading them eligible for biological tests. The partial instability may be attributed to the formation of cationic bis-carbeneAuCl2 species (Equation (1)), with the [bis-carbeneAuX2]^+ and the respective AuX2^−; these ions were actually detected as positive and negative ions in the ESI-MS spectra (see Figures S12 and S13). […] Additionally, the (+)ESI MS spectrum of the acetonitrile solution of compound 6 is particularly rich in positive ions (Figure S16). As concerns the mono-/bis-carbene formation, it is likely initiated by the large trans effect of the carbene ligands, which induces the chemical lability on the trans halide, triggers […], the formation of bis-carbeneAu(III) species, and AuX2^− or AuX4^− anions:2[NHC-AuX3] ⇔ [[(NHC)2AuX2] [AuX2^−] + 2X(1) […]
The stability of the samples 1-8 in DMSO solution was assayed by UV-visible spectroscopy. Spectra were acquired using the Shimadzu UV-2700i spectrophotometer, equipped with the Shimadzu CPS-100 Peltier, at 293 K. Unless diversely specified, 100 µM DMSO solutions of the 1-8 compounds were prepared and spectra were acquired each 10 minutes for a total of 60 minutes. The spectra obtained are reported as following.
Figure S19. UV-Visible Spectra acquired for complex 1.
Figure S20. UV-Visible Spectra acquired for complex 2. […]

H460 = assay: MTT viability assay, H460; assay type: cell-based, human; details: mean ± span, 48 h treatment, cell line with KRAS mutation
Protocol: as §1, §2, §3

Row | Compound | IC50 (A549) [µM] | TrxR activity reduction / inhibition ([1]; A549, 24 h treatment, stated for both cell lines) | Mean Diff. TrxR activity vs. veh ([1]; reading at 25 min) [%] | Mean Diff. TrxR activity vs. veh ([1]; reading at 60 min) [%] | Mean Diff. TrxR activity vs. veh ([1]; reading at 90 min) [%] | Mean Diff. TrxR activity vs. veh ([1]; reading at 110 min) [%] | IC50 (H1993) [nM] | IC50 [2] [µM] | IC50 (HCC-44) [µM] | selectivity for the NSCLC cell lines over the lung fibroblasts (IMR90) | IC50 (IMR90) [µM] | stability in solution [3] | IC50 (H460) [µM]
1 | Cn1cc[n+](C)[c]1[Au-2]([Cl])[P+](c1ccccc1)(c1ccccc1)c1ccccc1 [Compound 8] | 9.1 ± 1.2 | more than 80% | −86.87 | −80.79 | −82.25 | −82.25 | 1800 ± 1050 | 3 | 7.3 ± 1.05 | good selectivity | 87 ± 4.9 | highest stability in solution | 13 ± 1.4
2 | Clc1n[c]([Au-][P+](c2ccccc2)(c2ccccc2)c2ccccc2)n(Cc2ccccc2)c1Cl [Compound 7] | 16 ± 1.3 |  | −59.2 | −44.4 | −56.35 | −53.76 | 1800 ± 960 | 4 | 9.2 ± 1.02 | good selectivity | 63 ± 2.5 | highest stability in solution | 6.6 ± 1.02
